One test addresses σ1 receptor (Homo sapiens, UniProt Q99720). It counts as binding. The note with it: 10 μM competing compound, 1 nM [125I]-IAF, RT4 cell membranes.
In test [1] the target is σ2 receptor (Homo sapiens, UniProt Q5BJF2). It counts as binding. The note with it: 10 μM competing compound, 1 nM [125I]-IAF, RT4 cell membranes.
In test [2] the target is T1, σ2 receptor (Rattus norvegicus, UniProt Q5U3Y7).
T1 sequence (Q5U3Y7 1-176): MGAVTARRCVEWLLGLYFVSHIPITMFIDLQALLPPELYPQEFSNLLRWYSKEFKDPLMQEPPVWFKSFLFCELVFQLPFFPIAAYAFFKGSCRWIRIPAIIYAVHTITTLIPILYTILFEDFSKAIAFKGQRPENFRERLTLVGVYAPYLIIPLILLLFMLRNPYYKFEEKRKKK
The experiment in a line: Competitive σ2 receptor radioligand binding.

The structures appear in SMILES notation.

Chain of σ2 receptor (Homo sapiens, UniProt Q5BJF2) (Q5BJF2 whole entry): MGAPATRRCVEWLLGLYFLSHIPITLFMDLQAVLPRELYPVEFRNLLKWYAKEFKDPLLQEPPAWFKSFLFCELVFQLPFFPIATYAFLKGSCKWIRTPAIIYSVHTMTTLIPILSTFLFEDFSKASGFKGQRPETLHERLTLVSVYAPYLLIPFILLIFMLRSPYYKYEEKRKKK
Chain of σ1 receptor (Q99720 whole entry): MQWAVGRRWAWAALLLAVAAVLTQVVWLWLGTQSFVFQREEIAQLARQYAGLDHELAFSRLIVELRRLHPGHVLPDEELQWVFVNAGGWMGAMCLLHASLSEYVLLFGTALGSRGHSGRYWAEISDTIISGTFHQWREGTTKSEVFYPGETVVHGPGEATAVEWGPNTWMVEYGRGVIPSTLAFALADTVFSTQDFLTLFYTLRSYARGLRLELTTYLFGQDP

Regarding `O=C1c2ccccc2C(=O)N1CCCCN1CCc2ccc([N+](=O)[O-])cc2C1` [Compound 3b, 2-(4-(7-Nitro-3,4-dihydroisoquinoline-2(1H)-yl)butyl)isoindoline-1,3-dione], at σ1 receptor, the “Blocking of σ1 receptor photolabeling by [125I]-IAF” value was “diminished both bands”. Moreover, at σ2 receptor [1], the “Blocking of σ2 receptor photolabeling by [125I]-IAF” value is given as “diminished both bands”.
Regarding `COc1ccc(C(=O)NCCCCN2CCc3ccc([N+](=O)[O-])cc3C2)c(OC)c1OC` [Compound 5e, 2,3,4-Trimethoxy-N-(4-(7-nitro-3,4-dihydroisoquinoline-2(1H)-yl)butyl)benzamide], the “Blocking of σ1 receptor photolabeling by [125I]-IAF” value on σ1 receptor was “left σ1 labeling essentially unaltered”. Besides, the “Selectivity for the σ2 over the σ1 receptor” value on σ2 receptor [2] is on record as ~ 400 fold. Further, at σ2 receptor [2] (5e compared to 5f), the “Improvement of σ2 selectivity relative to the σ1 receptor, versus 5f” value is 631 fold and the “Increase of σ2 affinity versus 5f” value amounted to 500 fold. For the same compound, the “Blocking of σ2 receptor photolabeling by [125I]-IAF” value on σ2 receptor [1] is recorded as “eliminated σ2 labeling”.
For the compound `COc1cccc(C(=O)NCCCCN2CCc3ccc([N+](=O)[O-])cc3C2)c1OC` [Compound 5f, 2,3-Dimethoxy-N-(4-(7-nitro-3,4-dihydroisoquinoline-2(1H)-yl)butyl)benzamide], the “Blocking of σ1 receptor photolabeling by [125I]-IAF” value on σ1 receptor is on record as “did not block the labeling of either receptor”. Further, the “Blocking of σ2 receptor photolabeling by [125I]-IAF” value on σ2 receptor [1] is reported as “did not block the labeling of either receptor”.
Consider `COc1c(I)ccc(C(=O)NCCCCN2CCc3ccc([N+](=O)[O-])cc3C2)c1O` [Compound 5g, 2-Hydroxy-4-iodo-3-methoxy-N-(4-(7-nitro-3,4-dihydroisoquinoline-2(1H)-yl)butyl)benzamide], for which the “Increase of σ2 affinity in comparison to compound 5h” value on σ2 receptor [2] (5g compared to 5h) was found to be 4.5 fold.
`O=C(CCCN1CCC(O)(c2ccc(Cl)cc2)CC1)c1ccc(F)cc1` [haloperidol, reference compound]: the “Blocking of σ2 receptor photolabeling by [125I]-IAF” value on σ2 receptor [1] is recorded as “blocked photolabeling”.
